Drawing on patent US12157741B2, “Macrocyclic inhibitors of DYRK1A” (DANA-FARBER CANCER INSTITUTE, INC., priority 2018, dated 2024), this text covers Ambit profiling for two molecules.

Read-outs that look alike come from different tables or passages of the source.

Test [1] addresses T1, various enzymes (Homo sapiens, UniProt O43283).
T1 sequence (O43283 1-966): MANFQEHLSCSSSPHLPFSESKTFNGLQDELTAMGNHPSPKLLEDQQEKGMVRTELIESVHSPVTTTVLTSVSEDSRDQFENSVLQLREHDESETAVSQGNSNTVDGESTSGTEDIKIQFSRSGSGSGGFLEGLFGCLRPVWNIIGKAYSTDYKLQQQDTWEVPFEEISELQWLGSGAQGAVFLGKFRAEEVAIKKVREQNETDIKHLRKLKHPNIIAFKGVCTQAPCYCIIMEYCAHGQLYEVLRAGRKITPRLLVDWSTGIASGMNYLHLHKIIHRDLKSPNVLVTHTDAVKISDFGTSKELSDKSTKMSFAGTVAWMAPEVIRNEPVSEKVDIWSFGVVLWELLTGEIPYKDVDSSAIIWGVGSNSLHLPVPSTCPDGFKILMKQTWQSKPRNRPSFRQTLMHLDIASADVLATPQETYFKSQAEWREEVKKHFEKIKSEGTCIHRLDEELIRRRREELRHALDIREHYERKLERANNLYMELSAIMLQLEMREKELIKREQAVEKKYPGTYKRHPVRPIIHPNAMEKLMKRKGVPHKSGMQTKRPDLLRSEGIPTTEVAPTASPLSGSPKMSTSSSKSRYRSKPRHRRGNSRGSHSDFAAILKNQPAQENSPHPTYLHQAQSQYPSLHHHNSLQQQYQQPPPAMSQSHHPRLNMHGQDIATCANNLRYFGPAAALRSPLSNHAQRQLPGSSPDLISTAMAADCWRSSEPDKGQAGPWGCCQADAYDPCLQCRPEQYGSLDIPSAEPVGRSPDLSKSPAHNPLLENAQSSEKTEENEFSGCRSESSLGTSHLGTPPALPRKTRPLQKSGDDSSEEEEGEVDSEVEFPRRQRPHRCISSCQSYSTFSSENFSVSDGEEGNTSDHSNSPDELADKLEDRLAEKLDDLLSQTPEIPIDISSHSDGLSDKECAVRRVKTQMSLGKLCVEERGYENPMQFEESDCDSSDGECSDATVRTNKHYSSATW
The note with it: LZK; 1 uM.
Method: (§1) Ambit profiling from Eurofins (formerly Discoverx) was conducted in accordance with the manufacturer's instructions.

The target in test [2] is various enzymes (Homo sapiens, UniProt P00533, DEL752-759). The settings on record: EGFR(S752-I759del); 1 uM.
Method: as §1
The target in test [3] is various enzymes (Homo sapiens, UniProt P23458). The settings on record: 1 uM.
Method: as §1
Test [4] deals with various enzymes (Homo sapiens, UniProt P78368). The settings on record: CSNK1G2; 1 uM.
Method: as §1
Test [5] deals with various enzymes (Homo sapiens, UniProt Q06187). The settings on record: BTK; 1 uM.
Method: as §1
For test [6], the target named is T2, various enzymes (Homo sapiens, UniProt Q12852).
T2 sequence (Q12852 1-859): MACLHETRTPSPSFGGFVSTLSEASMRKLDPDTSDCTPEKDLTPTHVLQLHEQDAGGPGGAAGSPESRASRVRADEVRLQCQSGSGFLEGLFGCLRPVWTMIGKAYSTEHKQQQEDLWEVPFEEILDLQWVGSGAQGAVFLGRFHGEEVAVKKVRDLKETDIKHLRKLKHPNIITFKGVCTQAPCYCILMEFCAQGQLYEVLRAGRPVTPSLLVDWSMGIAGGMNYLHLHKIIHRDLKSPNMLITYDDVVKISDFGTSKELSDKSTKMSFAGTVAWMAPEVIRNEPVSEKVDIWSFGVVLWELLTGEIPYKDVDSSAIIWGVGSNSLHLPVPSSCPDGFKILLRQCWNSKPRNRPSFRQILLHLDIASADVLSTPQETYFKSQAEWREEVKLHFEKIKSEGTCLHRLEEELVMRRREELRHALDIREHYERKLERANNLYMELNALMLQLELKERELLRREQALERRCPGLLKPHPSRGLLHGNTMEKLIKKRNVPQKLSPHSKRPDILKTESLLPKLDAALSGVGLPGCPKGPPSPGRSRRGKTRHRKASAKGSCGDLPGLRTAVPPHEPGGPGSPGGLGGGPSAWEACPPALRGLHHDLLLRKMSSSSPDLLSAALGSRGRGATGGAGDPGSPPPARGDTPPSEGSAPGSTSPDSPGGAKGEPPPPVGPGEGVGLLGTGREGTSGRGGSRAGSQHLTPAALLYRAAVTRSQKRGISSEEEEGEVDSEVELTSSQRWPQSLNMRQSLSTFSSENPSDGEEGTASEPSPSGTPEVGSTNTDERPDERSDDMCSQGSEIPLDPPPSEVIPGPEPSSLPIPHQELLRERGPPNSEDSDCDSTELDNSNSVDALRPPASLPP
The settings on record: DLK; 1 uM.
Method: as §1

The target in test [7] is T3, various enzymes (Homo sapiens, UniProt Q99640).
T3 sequence (Q99640 1-499): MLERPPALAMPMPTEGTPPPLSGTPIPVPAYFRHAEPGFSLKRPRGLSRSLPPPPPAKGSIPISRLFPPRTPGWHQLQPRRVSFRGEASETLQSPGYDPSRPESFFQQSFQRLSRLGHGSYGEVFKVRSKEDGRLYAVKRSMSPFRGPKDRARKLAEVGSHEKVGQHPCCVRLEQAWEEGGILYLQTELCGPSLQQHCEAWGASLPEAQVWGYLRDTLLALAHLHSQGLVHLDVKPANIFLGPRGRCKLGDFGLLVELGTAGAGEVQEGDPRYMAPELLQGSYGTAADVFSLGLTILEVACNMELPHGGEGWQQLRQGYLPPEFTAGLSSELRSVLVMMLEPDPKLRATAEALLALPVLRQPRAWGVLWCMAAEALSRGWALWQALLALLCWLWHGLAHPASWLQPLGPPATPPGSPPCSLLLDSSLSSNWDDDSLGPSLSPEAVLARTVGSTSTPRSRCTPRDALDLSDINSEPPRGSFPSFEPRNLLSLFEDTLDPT
The settings on record: PKMYT1; 1 uM.
Method: as §1

The target in test [8] is various enzymes (Homo sapiens, UniProt Q9Y6E0). The settings on record: MST3; 1 uM.
Chain of various enzymes (Homo sapiens, UniProt Q9Y6E0) (Q9Y6E0 whole entry): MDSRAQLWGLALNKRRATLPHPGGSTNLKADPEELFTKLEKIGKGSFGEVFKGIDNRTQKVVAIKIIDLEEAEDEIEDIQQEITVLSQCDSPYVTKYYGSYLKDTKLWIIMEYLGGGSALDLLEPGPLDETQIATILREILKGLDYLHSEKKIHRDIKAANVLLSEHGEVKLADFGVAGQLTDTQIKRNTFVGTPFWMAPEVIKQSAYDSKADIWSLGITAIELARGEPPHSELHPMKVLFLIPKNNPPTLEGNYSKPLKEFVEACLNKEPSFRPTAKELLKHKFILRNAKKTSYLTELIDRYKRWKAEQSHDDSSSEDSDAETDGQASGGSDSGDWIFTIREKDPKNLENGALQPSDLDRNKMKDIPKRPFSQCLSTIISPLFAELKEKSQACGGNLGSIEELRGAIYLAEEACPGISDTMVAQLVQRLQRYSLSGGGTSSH
Method: as §1

Chain of various enzymes (Homo sapiens, UniProt P23458) (P23458 whole entry): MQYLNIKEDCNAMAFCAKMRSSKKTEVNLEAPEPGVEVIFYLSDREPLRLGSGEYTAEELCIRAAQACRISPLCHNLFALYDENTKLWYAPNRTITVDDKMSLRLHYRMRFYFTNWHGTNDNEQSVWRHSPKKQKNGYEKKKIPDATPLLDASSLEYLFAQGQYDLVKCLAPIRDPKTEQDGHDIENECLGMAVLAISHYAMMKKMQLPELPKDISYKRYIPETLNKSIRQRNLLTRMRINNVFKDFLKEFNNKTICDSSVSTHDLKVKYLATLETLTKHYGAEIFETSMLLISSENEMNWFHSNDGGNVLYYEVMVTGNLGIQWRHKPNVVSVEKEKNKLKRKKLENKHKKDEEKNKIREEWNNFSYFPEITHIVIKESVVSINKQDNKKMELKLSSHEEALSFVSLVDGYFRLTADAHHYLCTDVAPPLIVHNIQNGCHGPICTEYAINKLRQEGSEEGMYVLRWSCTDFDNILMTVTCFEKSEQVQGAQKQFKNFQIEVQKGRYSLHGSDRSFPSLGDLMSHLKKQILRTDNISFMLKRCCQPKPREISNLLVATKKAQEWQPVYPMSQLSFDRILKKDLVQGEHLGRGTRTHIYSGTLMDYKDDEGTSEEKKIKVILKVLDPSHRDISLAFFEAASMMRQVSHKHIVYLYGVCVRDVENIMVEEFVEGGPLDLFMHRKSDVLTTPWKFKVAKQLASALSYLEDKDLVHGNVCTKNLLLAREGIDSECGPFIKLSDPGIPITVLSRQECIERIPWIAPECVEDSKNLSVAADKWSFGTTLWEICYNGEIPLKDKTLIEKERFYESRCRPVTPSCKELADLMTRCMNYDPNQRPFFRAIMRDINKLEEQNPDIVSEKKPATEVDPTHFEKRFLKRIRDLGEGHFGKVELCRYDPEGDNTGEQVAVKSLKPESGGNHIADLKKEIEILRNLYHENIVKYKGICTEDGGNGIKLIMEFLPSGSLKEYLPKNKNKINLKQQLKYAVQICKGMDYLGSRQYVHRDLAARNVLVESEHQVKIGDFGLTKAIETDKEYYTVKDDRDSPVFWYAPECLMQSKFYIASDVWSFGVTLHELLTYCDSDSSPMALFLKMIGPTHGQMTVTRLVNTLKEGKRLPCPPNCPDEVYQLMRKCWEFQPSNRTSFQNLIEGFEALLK
Chain of various enzymes (Homo sapiens, UniProt Q06187) (Q06187 whole entry): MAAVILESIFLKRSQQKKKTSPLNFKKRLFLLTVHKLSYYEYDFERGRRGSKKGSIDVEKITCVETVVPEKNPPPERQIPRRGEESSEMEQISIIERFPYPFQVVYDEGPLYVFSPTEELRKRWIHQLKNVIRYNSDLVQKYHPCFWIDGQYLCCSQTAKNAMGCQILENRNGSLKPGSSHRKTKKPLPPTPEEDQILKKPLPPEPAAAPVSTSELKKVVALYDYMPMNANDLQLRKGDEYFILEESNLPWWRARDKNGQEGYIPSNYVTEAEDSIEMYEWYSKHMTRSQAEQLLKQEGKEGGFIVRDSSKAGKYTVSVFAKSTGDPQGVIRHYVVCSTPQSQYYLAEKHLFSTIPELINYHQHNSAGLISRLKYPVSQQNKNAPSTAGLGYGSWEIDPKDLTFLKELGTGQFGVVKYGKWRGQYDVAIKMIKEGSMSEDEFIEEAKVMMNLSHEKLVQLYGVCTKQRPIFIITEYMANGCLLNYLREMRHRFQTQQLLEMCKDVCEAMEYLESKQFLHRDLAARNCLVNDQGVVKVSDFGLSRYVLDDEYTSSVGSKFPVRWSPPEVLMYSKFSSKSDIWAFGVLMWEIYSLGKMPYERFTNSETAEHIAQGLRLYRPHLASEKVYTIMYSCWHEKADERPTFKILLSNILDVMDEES
Chain of various enzymes (Homo sapiens, UniProt P78368) (P78368 whole entry): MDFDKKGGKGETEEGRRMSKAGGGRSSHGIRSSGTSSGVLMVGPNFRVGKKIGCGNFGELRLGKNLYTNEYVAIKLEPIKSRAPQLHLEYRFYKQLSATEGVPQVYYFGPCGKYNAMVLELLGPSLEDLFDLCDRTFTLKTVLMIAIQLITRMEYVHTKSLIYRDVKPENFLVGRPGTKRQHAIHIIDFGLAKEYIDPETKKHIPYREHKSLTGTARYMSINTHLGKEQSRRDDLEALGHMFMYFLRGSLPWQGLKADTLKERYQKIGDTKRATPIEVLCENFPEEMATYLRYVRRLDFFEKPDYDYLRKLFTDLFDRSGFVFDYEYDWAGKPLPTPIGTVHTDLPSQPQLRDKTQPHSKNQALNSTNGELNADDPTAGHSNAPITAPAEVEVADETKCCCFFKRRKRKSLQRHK

`CN1Cc2nn(C)cc2-c2cnc3[nH]cc(c3c2)-c2cnn(c2)CCCC1=O` [Compound 41, (Z)-31,5-dimethyl-11H,21H,31H-5-aza-2(3,5)-pyrrolo[2,3-b]pyridina-1(4,1),3(4,3)-dipyrazolacyclononaphan-6-one]: the Ambit profiling on various enzymes [1] is recorded as 11; at various enzymes [2], 100; on various enzymes [3] (JAK1(JH1domain-catalytic)), 18; on various enzymes [3] (JAK1(JH2domain-pseudokinase)), 9.1; at various enzymes [4], 100; on various enzymes [5], 61. Besides, the Ambit profiling on various enzymes [6] stood at 23; on various enzymes [7], 64; at various enzymes [8], 39.

In the case of `CN1Cc2nn(C)c(C#N)c2-c2cnc3[nH]cc(c3c2)-c2cn(nc2C(F)(F)F)CCCC1=O` [Compound 48, (Z)-31,5-dimethyl-6-oxo-13-(trifluoromethyl)-11H,21H,31H-5-aza-2(3,5)-pyrrolo[2,3-b]pyridina-1(4,1),3(4,3)-dipyrazolacyclononaphane-35-carbonitrile], the Ambit profiling at various enzymes [1] stood at 100; at various enzymes [2], 77; at various enzymes [3] (JAK1(JH1domain-catalytic)) it was 100; on various enzymes [3] (JAK1(JH2domain-pseudokinase)), 100; at various enzymes [4] it was 100; at various enzymes [5], 97. Further, the Ambit profiling on various enzymes [6] worked out at 100; at various enzymes [7], 77; on various enzymes [8] it was 86.
